The term inhibition denotes the percentage by which the read-out fell short of the control. A high value points to a response far below the control.

The assay has as its target Syk (h) (Homo sapiens, UniProt P43405). The assay is described as follows: Syk kinase activity (inhibition) assay, 33P-ATP filter assay. The note with it: 10 μM test agent; Syk (h) 5-10 mU; 40 minutes at room temperature. In kind it is biochemical. The procedure: In a final reaction volume of 25 μl, Syk (h) (5-10 mU) is incubated with 50 mM Tris pH 7.5, […], 0.1 mM Na3VO4, 0.1% β-mercaptoethanol, 0.1 mg/mL poly (Glu, Tyr) 4:1, 10 μM test agent, 10 mM Mg Acetate and [γ-^33P-ATP] (specific activity approximately 500 cpm/pmol, concentration as required). The reaction is initiated by the addition of the MgATP mix. After incubation for 40 minutes at room temperature, the reaction is stopped by the addition of 5 μl of a 3% phosphoric acid solution. 10 μl of the reaction is then spotted onto a Filtermat A and washed three times for 5 minutes in 75 mM phosphoric acid and once in methanol prior to drying and scintillation counting. Percent inhibition was calculated using the following formula:
% Control=((sample-mean no enzyme)/(mean plus enzyme−mean no enzyme))×100.
With `CN(C)CCN1CCN(c2ccc(-c3ccc(OC(F)(F)F)cc3)cn2)CC1`, testing at 10 µM gave an inhibition of 30%. Under `c1cc(N2CCN(CCN3CCCC3)CC2)ncc1-c1ccc2c(c1)OCO2` stands 32%. Next, `CN(C)CCN(C)c1ccc(-c2ccc(Cl)cc2)cn1`: 51%; `CN(C)CCN1CCN(c2ccc(/C=C/c3ccccc3)cn2)CC1`: 36%.

Take `Fc1ccc(-c2ccc(N3CCN(CCN4CCCC4)CC3)nc2)c(F)c1`: the inhibition at 10 µM was found to be 36%. Next, `Oc1cccc(-c2ccc(N3CCOCC3)nc2)c1`: 35%; `Fc1ccc(-c2ccc(N3CCOCC3)nc2)c(F)c1`: 34%. Next, `CCCC/C=C/c1ccc(N2CCN(CCN(C)C)CC2)nc1`: 31%; `COc1cc(-c2ccc(N3CCN(CCN4CCCC4)CC3)nc2)cc(OC)c1OC`: 37%. Next, `COc1cc(-c2ccc(N3CCN(CCN(C)C)CC3)nc2)cc(OC)c1OC`: 36%; `COc1cncc(-c2ccc(N3CCOCC3)nc2)c1`: 36%. On to `CN(C)CCN(C)c1ccc(-c2cccc(N(C)C)c2)cn1`, for which testing at 10 µM gave an inhibition of 45%. Under `CN(C)CCN(C)c1ccc(-c2ccc(F)cc2F)cn1` stands 45%; under `CN(C)CCN1CCN(c2ccc(-c3cc(C(F)(F)F)cc(C(F)(F)F)c3)cn2)CC1`, 56%. Under `CCCC/C=C/c1ccc(N2CCN(CCN3CCCC3)CC2)nc1` stands 38%; under `CCOc1cccc(-c2ccc(N(C)CCN(C)C)nc2)c1`, 42%.

The values are drawn from patent US7799778B1, “5-substituted 2-aminopyridine analogs for treating allergic and inflammatory diseases” (Alcon, Inc., priority 2005, dated 2010).
